Laboratory results reported in PubChem BioAssay (NCI).
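Exposure lasted 48 hours, with cells grown in 96-well plates and compounds tested at five concentrations. The concentration for 50% growth inhibition is given as GI50. TGI marks complete inhibition of growth.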

Legend:
Assay in all cases: NCI-60 cell line screen, 48 h
[1] = tested on: T-47D breast
[2] = tested on: HS 578T breast
[3] = tested on: NCI/ADR-RES ovarian
[4] = tested on: EKVX NSCLC
[5] = tested on: PC-3 prostate
[6] = tested on: UACC-62 melanoma
[7] = tested on: SK-MEL-5 melanoma
[8] = tested on: OVCAR-3 ovarian
[9] = tested on: SF-268 CNS
[10] = tested on: 786-0 renal
[11] = tested on: HCT-116 colon
[12] = tested on: MDA-N
[13] = tested on: HCC-2998 colon

Compound | GI50 [1] | TGI [1] | GI50 [2] | TGI [2] | GI50 [3] | TGI [3] | GI50 [4] | TGI [4] | TGI [5] | TGI [6] | TGI [7] | TGI [8] | TGI [9] | TGI [10] | TGI [11] | TGI [12] | TGI [13] | GI50 [8] | GI50 [9]
CCCCCCCCCCCCCCCCCCOc1ccccc1CC(=O)OCC[N+]1(C)CCCCC1 | 2490 nM | 9.37 µM | 2320 nM | 6.53 µM | 14.9 µM | 46.6 µM | 2650 nM | 17.5 µM |  |  |  |  |  |  |  |  |  |  | 
O=C([O-])C[n+]1ccccc1 |  | > 100 µM |  | > 100 µM |  | > 100 µM |  | > 100 µM | > 100 µM | > 100 µM | > 100 µM | > 100 µM | > 100 µM | > 100 µM | > 100 µM | > 100 µM |  |  | 
CN(CCCCCl)P(=O)(OCc1ccc([N+](=O)[O-])o1)OC[C@H]1O[C@@H](n2cc(F)c(=O)[nH]c2=O)C[C@@H]1O (stereo not given in full) |  | 5.41 µM |  | 8.68 µM |  | 36.3 µM |  | > 100 µM | > 56.1 µM | 6.48 µM | 12.9 µM | 19.1 µM | 13.2 µM | > 80.1 µM | > 43.8 µM | 33.3 µM |  |  | 
NN(CC(=O)O)CC(=O)O |  | > 100 µM |  | > 100 µM |  | > 100 µM |  | > 100 µM | > 100 µM | > 100 µM | > 100 µM | > 100 µM | > 100 µM | > 100 µM | > 100 µM | > 100 µM | > 100 µM |  | 
O=C(O)c1cc([N+](=O)[O-])cc2c(=O)c3cnccc3[nH]c12 |  | > 100 µM |  | > 100 µM |  | > 100 µM |  |  | > 100 µM | > 100 µM | > 100 µM | > 100 µM |  |  | > 100 µM | > 100 µM | > 100 µM |  | 
Nc1ncnc2nc[nH]c12 |  |  |  |  |  | 99.5 µM |  | > 250 µM |  | > 250 µM | > 250 µM | > 250 µM | > 250 µM |  | > 250 µM |  | > 191 µM | 113 µM | 143 µM
Nc1ncnc2c1ncn2C=C=CCO |  | > 100 µM |  | > 100 µM |  | > 100 µM |  |  | > 100 µM |  | > 100 µM | > 100 µM |  |  | > 100 µM |  | > 100 µM |  | 
CCOc1ccc(NC(=O)C(=O)CC(=O)c2sc(NNC(C)=O)nc2C)cc1 |  |  |  |  |  |  |  | > 100 µM |  | > 100 µM | > 100 µM |  | > 100 µM |  | > 100 µM |  | > 100 µM |  | 
COc1cc2c(c(O)c1OC)-c1c(cc(OC)c(OC)c1OC)CC(C)C(C)C2 (stereo not given) |  | > 100 µM |  | > 100 µM |  |  |  | > 100 µM | > 100 µM | > 100 µM | > 100 µM | > 100 µM | > 100 µM | > 100 µM | > 100 µM | > 100 µM | > 100 µM |  | 
CC(C)=CCC/C(C)=C/CC/C(C)=C/CC/C(C)=C/C=C/C=C(\C)CC/C=C(\C)CC/C=C(\C)CCC=C(C)C |  | > 100 µM |  | > 100 µM |  | > 82.9 µM |  | > 93.3 µM | > 100 µM | > 100 µM | > 79.9 µM | > 100 µM | > 81.4 µM | 52.3 µM | > 100 µM | > 100 µM | > 100 µM |  | 
CCOC(=O)C1=C(C)OC2(O)C=CC(O)=C3C(=O)N(c4ccccc4)C(=O)C312 (stereo not given) |  | > 100 µM |  | 61.7 µM |  | > 100 µM |  | > 100 µM | > 100 µM | 76.7 µM |  | > 100 µM | > 100 µM | > 100 µM | > 100 µM |  | 73.9 µM |  | 
CN1CCOC(c2ccc(Cl)cc2)O1 (stereo not given) |  |  |  |  |  | > 100 µM |  | > 100 µM | > 100 µM | > 100 µM | > 100 µM | > 100 µM | > 100 µM |  |  | > 100 µM | > 100 µM |  | 
C=C1c2ccccc2C(=O)c2c1c1c(C(=O)OC)c(O)ccc1n2Cc1ccccc1 |  |  |  | 1.73 µM |  | 0.723 µM |  | 2.34 µM | 1.56 µM | 1.12 µM | 1.97 µM | 0.392 µM | 0.518 µM | 0.525 µM | 1.43 µM | 1.55 µM |  |  | 
